Read-outs that look alike come from different tables or passages of the source.
Columns and labels:
hTdp2 (Rec) = hTdp2 (Rec) (Homo sapiens (Human), UniProt O95551); assay: SUMO hTDP2cat fluorescence-based biochemical assay
Protocol: Biochemical Potency. The enzymatic activity of TDP2 was measured with a SUMO hTDP2cat fluorescence-based biochemical assay. […] After a pre-incubation period of 10 minutes, 5 μL of substrate 5′-(6-FAM-NHS)(5′-tyrosine)GATCT(3′-BHQ-1)-3′ (1 μM, final concentration of 0.25 μM) was added, and the reaction was allowed to proceed at 25° C. for 60 minutes. The fluorescence was measured, and the data was processed as described previously for 14M_zTDP2.

DT40 lymphoma cells = settings: in cancer cells, at 50 μM of compound 5-I; sensitizing effect; cited from earlier work
[1] = SUMO hTDP2cat 3.13 pM, substrate 0.25 μM, 25° C., 60 minutes, read-out: hTdp2 (Rec) IC50

Chain of hTdp2 (Rec) (O95551 113-362): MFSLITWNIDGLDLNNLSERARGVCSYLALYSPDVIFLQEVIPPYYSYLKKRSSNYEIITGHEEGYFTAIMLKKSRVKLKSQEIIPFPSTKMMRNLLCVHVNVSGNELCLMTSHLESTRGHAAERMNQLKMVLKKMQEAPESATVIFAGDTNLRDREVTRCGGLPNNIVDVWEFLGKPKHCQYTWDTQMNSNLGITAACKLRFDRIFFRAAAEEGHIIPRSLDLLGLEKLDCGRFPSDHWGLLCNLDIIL

Compound | IC50 (hTdp2 (Rec)) | IC50 (hTdp2 (Rec); [1]) | other results
N#Cc1ccc2cc3c(=O)[nH]c(=O)nc-3n(-c3ccc(Oc4ccc(NC(=O)Oc5ccccc5)cc4)cc3)c2c1 [Example 118] | 795 ± 40 nM | – | –
CC1(C)OB(c2cccc(Oc3ccc(-n4c5nc(=O)[nH]c(=O)c-5cc5ccc(C#N)cc54)cc3)c2)OC1(C)C [Example 119, 2,4-Dioxo-10-(4-(3-(4,4,5,5-tetramethyl-1,3,2-dioxaborolan-2-yl)phenoxy)phenyl)-2,3,4,10-tetrahydropyrimido[4,5-b]quinoline-8-carbonitrile] | – | 8.28 ± 0.44 nM | –
N#Cc1ccc2cc3c(=O)[nH]c(=O)nc-3n(-c3ccc(Oc4cccc(B(O)O)c4)cc3)c2c1 [Example 120, (3-(4-(8-Cyano-2,4-dioxo-3,4-dihydropyrimido[4,5-b]quinolin-10(2H)-yl)phenoxy)phenyl) boronic acid] | – | 5.01 ± 0.69 nM | –
CC1(C)OB(c2cccc(COc3ccc(-n4c5nc(=O)[nH]c(=O)c-5cc5ccc(C#N)cc54)cc3)c2)OC1(C)C [Example 121, 2,4-Dioxo-10-(4-((3-(4,4,5,5-tetramethyl-1,3,2-dioxaborolan-2-yl)benzyl)oxy)phenyl)-2,3,4,10-tetrahydropyrimido[4,5-b]quinoline-8-carbonitrile] | – | 47 ± 4 nM | –
CC1(C)OB(c2ccc(COc3ccc(-n4c5nc(=O)[nH]c(=O)c-5cc5ccc(C#N)cc54)cc3)cc2)OC1(C)C [Example 122, 2,4-Dioxo-10-(4-((4-(4,4,5,5-tetramethyl-1,3,2-dioxaborolan-2-yl)benzyl)oxy)phenyl)-2,3,41,10-tetrahydropyrimido[4,5-b]quinoline-8-carbonitrile] | – | 359 ± 32 nM | –
N#Cc1ccc2cc3c(=O)[nH]c(=O)nc-3n(-c3ccc(OCc4cccc(B(O)O)c4)cc3)c2c1 [Example 123, (3-((4-(8-Cyano-2,4-dioxo-3,4-dihydropyrimido [4,5-b]quinolin-10(2H)-yl)phenoxy)methyl)phenyl) boronic acid] | – | 39 ± 3 nM | –
N#Cc1ccc2cc3c(=O)[nH]c(=O)nc-3n(-c3ccc(OCc4ccc(B(O)O)cc4)cc3)c2c1 [Example 124, (4-((4-(8-Cyano-2,4-dioxo-3,4-dihydropyrimido [4,5-b]quinolin-10(2H)-yl)phenoxy)methyl)phenyl) boronic acid] | – | 239 ± 18 nM | –
N#Cc1ccc2cc3c(=O)n(-c4cccc(NC(=O)Oc5ccccc5)c4)c(=O)nc-3n(-c3ccc(O)cc3)c2c1 [Example 132, Phenyl-(3-(8-cyano-10-(4-hydroxyphenyl)-2,4-dioxo-4,10-dihydropyrimido[4,5-b]quinolin-3(2H)-yl)phenyl)carbamate] | 119 ± 4 nM | – | –
N#Cc1ccc2cc3c(=O)n(-c4ccc(NC(=O)Oc5ccccc5)cc4)c(=O)nc-3n(-c3ccc(O)cc3)c2c1 [Example 133, Phenyl-(4-(8-cyano-10-(4-hydroxyphenyl)-2,4-dioxo-4,10-dihydropyrimido[4,5-b]quinolin-3(2H)-yl)phenyl)carbamate] | 59 ± 4 nM | – | –
N#Cc1ccc2cc3c(=O)n(-c4cccc(NP(=O)(Oc5ccccc5)Oc5ccccc5)c4)c(=O)nc-3n(-c3ccc(O)cc3)c2c1 [Example 134, Diphenyl-(3-(8-cyano-10-(4-hydroxyphenyl)-2,4-dioxo-4,10-dihydropyrimido[4,5-b]quinolin-3(2H)-yl)phenyl)phosphoramidate] | 277 ± 11 nM | – | –
N#Cc1ccc2cc3c(=O)n(-c4ccc(NP(=O)(Oc5ccccc5)Oc5ccccc5)cc4)c(=O)nc-3n(-c3ccc(O)cc3)c2c1 [Example 135, Diphenyl-(4-(8-cyano-10-(4-hydroxyphenyl)-2,4-dioxo-4,10-dihydropyrimido[4,5-b]quinolin-3(2H)-yl)phenyl)phosphoramidate] | 185 ± 9 nM | – | –
N#Cc1ccc2cc3c(=O)n(-c4ccc(CNP(=O)(Oc5ccccc5)Oc5ccccc5)cc4)c(=O)nc-3n(-c3ccc(O)cc3)c2c1 [Example 136, Diphenyl-(4-(8-cyano-10-(4-hydroxyphenyl)-2,4-dioxo-4,10-dihydropyrimido[4,5-b]quinolin-3(2H)-yl)benzyl)phosphoramidate] | 119 ± 3 nM | – | –
O=c1nc2n(-c3ccc(Oc4cccc(B(O)O)c4)cc3)c3cc(Cl)ccc3cc-2c(=O)[nH]1 [Example 143, (3-(4-(8-Chloro-2,4-dioxo-3,4-dihydropyrimido[4,5-b]quinolin-10(2H)yl)phenoxy)phenyl) boronic acid] | – | 3.85 ± 0.37 nM | –
N#Cc1ccc2cc3c(=O)[nH]c(=O)nc-3n(-c3cccc(-c4nnn[nH]4)c3)c2c1 [compound 5-I] | – | – | maximal efficacy, cell viability (DT40 lymphoma cells): around 10%
